We go through 1 compound from article PMC5429603, “Discovery and characterization of verinurad, a potent and specific inhibitor of URAT1 for the treatment of hyperuricemia and gout” (Scientific Reports, 2017).

One experiment concerns the target rat URAT1 r-A21T (Rattus norvegicus, UniProt Q3ZAV1, A21T). The experiment in a line: cell-based. The text has this:
(§1) Human URAT1 (GenBank BC053348.1, Homo sapiens SLC22A12), rat URAT1 (NCBI NM_001034943.1, Rattus norvegicus Slc22a12) and human OAT4 (NCBI NM_018484.2, Homo sapiens SLC22A11) genes were purchased from Origene Technologies, Inc. and subcloned into pCMV6/neo using NotI. Where indicated, controls transfections used pCMV6/neo. Mutants were produced by site-directed mutagenesis using the QuikChange Lightning Multi Site-Directed Mutagenesis Kit (Agilent Technologies). […] Mutagenic primer sequences are provided in ref. [15] and mutagenic primer sequences for previously unreported mutants shown in Supplementary Table 1. All constructs used in this study were untagged. Human OAT1 was purchased from Fisher Scientific (catalog # MHS1010–7508183 in pSPORT6, NCBI NM_153276.2, Homo sapiens SLC22A6).
(§2) HEK-293T cells were maintained in DMEM/high glucose/L-glutamine/HEPES supplemented with 1 mM sodium pyruvate (Life Technologies) and 10% FBS (PAA Laboratories) at 37 °C in 5% CO2. To express URAT1, OAT4 or OAT1, plasmids were reverse transfected into HEK-293T cells. DNA (10 µg) was mixed with 30 µl of DreamFect Gold (Boca Scientific) in 2 ml OptiMem (Life Technologies). After 20 minutes, 18 ml of media containing 2 × 10^7 cells in suspension was added and mixed, and 200 µl per well were plated onto white clear-bottomed poly-D-lysine coated 96-well plates (BD Biosciences). The cells were assayed the following day.
(§3) URAT1 and OAT4 activity assays were performed in assay buffer consisting of 25 mM MES pH 5.5 (from a 1 M MES solution [Sigma] adjusted to pH 5.5 with sodium hydroxide), 125 mM sodium gluconate, 4.8 mM potassium gluconate, 1.2 mM monobasic potassium phosphate, 1.2 mM magnesium sulfate, 1.3 mM calcium gluconate and 5.6 mM glucose. URAT1 inhibitors were serially diluted into assay buffer and added to the cells for 5 minutes prior to addition of substrate. URAT1-expressing cells were incubated with 100 µM ^14C-uric acid for 10 minutes and OAT4-expressing cells were incubated with 20 µM carboxyfluorescein (Life Technologies, Inc.) for 5 minutes. Cells were then washed three times in 25 mM MES pH 5.5/125 mM sodium gluconate, and solubilized in Ultima Gold (Perkin Elmer) prior to liquid scintillation counting. Each treatment was measured in triplicate.

For the next experiment, the target named is rat URAT1 r-N35S/M481I (Rattus norvegicus, UniProt Q3ZAV1, M481I/N35S). The experiment in a line: cell-based.
Description: as §1, §2, §3

Another experiment concerns the target rat URAT1 r-L29M (Rattus norvegicus, UniProt Q3ZAV1, L29M). The experiment in a line: cell-based.
Description: as §1, §2, §3

A further experiment addresses rat URAT1 r-Y365F/M481I (Rattus norvegicus, UniProt Q3ZAV1, M481I/Y365F). The experiment in a line: cell-based.
Description: as §1, §2, §3

For another experiment, the target named is rat URAT1 r-V31L (Rattus norvegicus, UniProt Q3ZAV1, V31L). In words: cell-based.
Description: as §1, §2, §3

The target of another experiment is rat URAT1 r-P27S (Rattus norvegicus, UniProt Q3ZAV1, P27S). In words: cell-based.
Description: as §1, §2, §3

Another experiment addresses rat URAT1 r-N35S/Y365F (Rattus norvegicus, UniProt Q3ZAV1, N35S/Y365F). The experiment in a line: cell-based.
Description: as §1, §2, §3

A further experiment concerns the target rat URAT1 r-L18V (Rattus norvegicus, UniProt Q3ZAV1, L18V). The experiment in a line: cell-based.
Description: as §1, §2, §3

The target in another experiment is rat URAT1 r-T26V (Rattus norvegicus, UniProt Q3ZAV1, T26V). The experiment in a line: cell-based.
Description: as §1, §2, §3

Another experiment deals with rat URAT1 r-V22M (Rattus norvegicus, UniProt Q3ZAV1, V22M). The experiment in a line: cell-based.
Description: as §1, §2, §3

The next experiment has as its target T1, rat URAT1 r-T32C (Rattus norvegicus, UniProt Q3ZAV1, T32C).
T1 construct: expressed in transfected cells; host or cells: HEK-293T
The experiment in a line: URAT1 activity assay, r-T32C. It counts as cell-based.
Description: as §1
(§4) HEK-293T cells were maintained in DMEM/high glucose/L-glutamine/HEPES supplemented with 1 mM sodium pyruvate (Life Technologies) and 10% FBS (PAA Laboratories) at 37 °C in 5% CO2. […]
(§5) URAT1 and OAT4 activity assays were performed in assay buffer consisting of 25 mM MES pH 5.5 (from a 1 M MES solution [Sigma] adjusted to pH 5.5 with sodium hydroxide), 125 mM sodium gluconate, 4.8 mM potassium gluconate, 1.2 mM monobasic potassium phosphate, 1.2 mM magnesium sulfate, 1.3 mM calcium gluconate and 5.6 mM glucose. […] Each treatment was measured in triplicate.

In a further experiment the target is T2, rat URAT1 r-N35S (Rattus norvegicus, UniProt Q3ZAV1, N35S).
T2 construct: expressed in transfected cells; host or cells: HEK-293T
In words: URAT1 activity assay, r-N35S. It counts as cell-based.
Description: as §1, §4, §5

The next experiment addresses T3, human URAT1 h-I481M (Homo sapiens, UniProt Q96S37, I481M).
T3 construct: expressed in transfected cells; host or cells: HEK-293T
In words: URAT1 activity assay, h-I481M. It counts as cell-based.
Description: as §1, §4, §5

The next experiment concerns the target T4, human OAT4 (Homo sapiens, UniProt Q9NSA0).
T4 construct: host or cells: HEK-293T
The experiment in a line: OAT4 activity assay (carboxyfluorescein transport). Type of experiment: cell-based. The method, then:
as §2
as §3, with “Cells were then washed three times in 25 mM MES pH 5.5/125 mM sodium gluconate, and solubilized in Ultima Gold (Perkin Elmer) prior to liquid scintillation counting.” left out

A further experiment concerns the target T5, human URAT1 h-R477K (Homo sapiens, UniProt Q96S37, R477K).
T5 construct: expressed in transfected cells; host or cells: HEK-293T
T5 sequence (Q96S37 1-553 R477K): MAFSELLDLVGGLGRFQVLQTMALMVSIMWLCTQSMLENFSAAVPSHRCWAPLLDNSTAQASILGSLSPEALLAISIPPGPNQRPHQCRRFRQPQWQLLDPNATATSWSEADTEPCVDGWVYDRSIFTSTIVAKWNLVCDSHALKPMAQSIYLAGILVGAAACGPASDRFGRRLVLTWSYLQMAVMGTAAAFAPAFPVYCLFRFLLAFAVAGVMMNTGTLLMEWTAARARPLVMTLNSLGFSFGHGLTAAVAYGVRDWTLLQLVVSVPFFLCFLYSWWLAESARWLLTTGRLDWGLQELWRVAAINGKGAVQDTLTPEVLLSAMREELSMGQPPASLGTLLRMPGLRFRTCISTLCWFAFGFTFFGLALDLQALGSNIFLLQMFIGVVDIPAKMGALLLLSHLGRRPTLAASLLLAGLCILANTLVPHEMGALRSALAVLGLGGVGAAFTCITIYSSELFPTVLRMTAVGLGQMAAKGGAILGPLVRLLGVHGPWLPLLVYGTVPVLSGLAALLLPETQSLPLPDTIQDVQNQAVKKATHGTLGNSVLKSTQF
In words: URAT1 activity assay, h-R477K. It counts as cell-based.
Description: as §1, §2, §3

The target in a further experiment is T6, human URAT1 h-M25V (Homo sapiens, UniProt Q96S37, M25V).
T6 construct: expressed in transfected cells; host or cells: HEK-293T
In words: URAT1 activity assay, h-M25V. It counts as cell-based. The following applies: TM1 point mutant, read-out: Verinurad affinity (IC50).
Description: as §1, §4, §5

Where [1] appears, read: TM1 point mutant, read-out: Verinurad affinity (IC50).

T3 sequence (Q96S37 whole entry I481M): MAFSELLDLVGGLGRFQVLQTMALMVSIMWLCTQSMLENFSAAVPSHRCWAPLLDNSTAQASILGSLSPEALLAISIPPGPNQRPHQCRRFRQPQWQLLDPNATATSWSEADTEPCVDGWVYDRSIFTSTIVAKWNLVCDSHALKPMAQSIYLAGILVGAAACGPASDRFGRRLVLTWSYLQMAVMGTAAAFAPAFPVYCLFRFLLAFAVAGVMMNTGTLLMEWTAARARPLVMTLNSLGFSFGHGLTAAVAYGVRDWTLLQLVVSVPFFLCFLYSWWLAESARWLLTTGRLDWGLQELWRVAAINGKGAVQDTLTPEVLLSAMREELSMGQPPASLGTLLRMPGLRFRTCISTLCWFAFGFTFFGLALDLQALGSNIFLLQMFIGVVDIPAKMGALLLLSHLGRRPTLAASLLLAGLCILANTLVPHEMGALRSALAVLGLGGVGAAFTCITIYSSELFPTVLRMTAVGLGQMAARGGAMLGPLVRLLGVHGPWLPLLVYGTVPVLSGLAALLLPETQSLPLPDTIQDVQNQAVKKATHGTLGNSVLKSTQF
T1 sequence (Q3ZAV1 whole entry T32C): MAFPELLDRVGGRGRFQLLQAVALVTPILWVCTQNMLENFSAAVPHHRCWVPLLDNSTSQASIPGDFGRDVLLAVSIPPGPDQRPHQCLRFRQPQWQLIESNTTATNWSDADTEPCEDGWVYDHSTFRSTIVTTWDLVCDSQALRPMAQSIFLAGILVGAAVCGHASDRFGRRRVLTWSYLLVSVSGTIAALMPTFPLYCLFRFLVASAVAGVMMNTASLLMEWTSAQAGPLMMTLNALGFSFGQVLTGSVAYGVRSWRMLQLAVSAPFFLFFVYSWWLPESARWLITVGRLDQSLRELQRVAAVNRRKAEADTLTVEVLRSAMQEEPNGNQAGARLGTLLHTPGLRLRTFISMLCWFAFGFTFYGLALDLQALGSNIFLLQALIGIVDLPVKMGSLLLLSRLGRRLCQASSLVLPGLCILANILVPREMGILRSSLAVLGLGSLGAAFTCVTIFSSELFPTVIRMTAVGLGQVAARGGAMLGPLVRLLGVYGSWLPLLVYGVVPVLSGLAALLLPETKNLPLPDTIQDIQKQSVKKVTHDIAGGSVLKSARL
Chain of rat URAT1 r-P27S (Q3ZAV1 whole entry P27S): as the sequence (Q3ZAV1 whole entry T32C) above, with P27S, C32T counted along it
T2 sequence (Q3ZAV1 whole entry N35S): as the sequence (Q3ZAV1 whole entry T32C) above, with C32T, N35S counted along it
T4 sequence (Q9NSA0 whole entry): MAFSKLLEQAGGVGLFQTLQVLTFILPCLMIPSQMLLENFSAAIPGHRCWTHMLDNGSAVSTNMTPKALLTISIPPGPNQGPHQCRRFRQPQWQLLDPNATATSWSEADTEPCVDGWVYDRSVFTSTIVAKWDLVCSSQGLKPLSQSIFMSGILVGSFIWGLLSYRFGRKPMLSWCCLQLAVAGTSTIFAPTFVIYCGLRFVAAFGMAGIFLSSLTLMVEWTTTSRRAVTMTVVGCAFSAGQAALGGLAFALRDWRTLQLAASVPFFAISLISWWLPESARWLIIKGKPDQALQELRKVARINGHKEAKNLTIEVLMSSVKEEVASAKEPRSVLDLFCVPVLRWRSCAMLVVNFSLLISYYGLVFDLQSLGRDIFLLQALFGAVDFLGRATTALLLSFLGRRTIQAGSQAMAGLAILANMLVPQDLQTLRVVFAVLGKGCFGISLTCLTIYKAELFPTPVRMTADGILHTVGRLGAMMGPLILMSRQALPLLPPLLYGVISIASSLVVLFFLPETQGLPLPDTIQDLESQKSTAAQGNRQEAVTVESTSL
Chain of rat URAT1 r-N35S/M481I (Q3ZAV1 whole entry N35S/M481I): as the sequence (Q3ZAV1 whole entry T32C) above, with C32T, N35S, M481I counted along it
Chain of rat URAT1 r-Y365F/M481I (Q3ZAV1 whole entry Y365F/M481I): as the sequence (Q3ZAV1 whole entry T32C) above, with C32T, Y365F, M481I counted along it
Chain of rat URAT1 r-N35S/Y365F (Q3ZAV1 whole entry N35S/Y365F): as the sequence (Q3ZAV1 whole entry T32C) above, with C32T, N35S, Y365F counted along it
Chain of rat URAT1 r-L18V (Q3ZAV1 whole entry L18V): as the sequence (Q3ZAV1 whole entry T32C) above, with L18V, C32T counted along it
Chain of rat URAT1 r-A21T (Q3ZAV1 whole entry A21T): as the sequence (Q3ZAV1 whole entry T32C) above, with A21T, C32T counted along it
Chain of rat URAT1 r-V31L (Q3ZAV1 whole entry V31L): as the sequence (Q3ZAV1 whole entry T32C) above, with V31L, C32T counted along it
Chain of rat URAT1 r-V22M (Q3ZAV1 whole entry V22M): as the sequence (Q3ZAV1 whole entry T32C) above, with V22M, C32T counted along it
Chain of rat URAT1 r-T26V (Q3ZAV1 whole entry T26V): as the sequence (Q3ZAV1 whole entry T32C) above, with T26V, C32T counted along it
T6 sequence (Q96S37 whole entry M25V): as the sequence (Q96S37 whole entry I481M) above, with M25V, M481I counted along it
Chain of rat URAT1 r-L29M (Q3ZAV1 whole entry L29M): as the sequence (Q3ZAV1 whole entry T32C) above, with L29M, C32T counted along it

For `CC(C)(Sc1ccncc1-c1ccc(C#N)c2ccccc12)C(=O)O` [Verinurad, 2-((3-(4-cyanonaphthalen-1-yl)pyrindin-4-yl)thio)-2-methylpropanoic acid], the IC50 on rat URAT1 r-A21T turned out to be 36 ± 5.2 µM; against rat URAT1 r-N35S/M481I, 4.43 µM; on rat URAT1 r-L29M, 29 ± 3.3 µM; at rat URAT1 r-Y365F/M481I, 0.59 µM; against rat URAT1 r-V31L it was 29 ± 3.2 µM; on rat URAT1 r-P27S, 27 ± 3.4 µM. The IC50 at rat URAT1 r-N35S/Y365F was determined as 0.47 µM; at rat URAT1 r-L18V it was 40 ± 6.1 µM; against rat URAT1 r-T26V, 39 ± 5.5 µM; on rat URAT1 r-V22M, 43 ± 2.5 µM; on rat URAT1 r-T32C (setting [1]), 29 ± 3.1 µM; at rat URAT1 r-N35S (setting [1]), 10 ± 1.5 µM. Besides, the IC50 at human URAT1 h-I481M (TM11 point mutant, read-out: Verinurad affinity (IC50)) is 0.053 ± 0.01 µM; at human OAT4 (human OAT4 in HEK-293T, 20 µM carboxyfluorescein, read-out: IC50, inhibition of transport activity), 5.9 ± 1.4 µM; on human URAT1 h-R477K (h-R477K binding site point mutant), 0.23 µM; on human URAT1 h-M25V, 0.029 ± 0.01 µM. Further, the “fold increase in affinity” value at rat URAT1 r-P27S (printed r-S27P, vs rat URAT1) worked out at 1.5 fold. For the same compound, the “fold increase in affinity relative to rat URAT1” value at rat URAT1 r-T32C amounted to 1.4 fold. In addition, the “fold higher affinity relative to rat URAT1” value at rat URAT1 r-N35S is 4 fold. In addition, the “fold reduction in affinity compared to human URAT1” value on human URAT1 h-I481M amounted to 2 fold. Besides, the “fold lower affinity compared to URAT1” value on human OAT4 (human OAT4 vs human URAT1) is “approximately 200 fold”. Moreover, the “fold reduced affinity compared to human URAT1” value on human URAT1 h-R477K (h-R477K) is listed as 9 fold.

The IC50 is the concentration that gives 50% inhibition.
